Legend:
[1] = system: F21D (DNA, G4) GGGTTAGGGTTAGGGTTAGGG; experiment: FRET melting; conditions: 5 mM K+, 95 mM Li+, 10 mM lithium cacodylate, pH 7.2, 0.2 µM F21D
[2] = system: Tel22 (DNA, G4) AGGGTTAGGGTTAGGGTTAGGG; experiment: UV-Vis titration, Direct Fit; conditions: 5 mM K+, 95 mM Li+; 10 mM lithium cacodylate, pH 7.2; equivalent independent sites assumed; per site

| ΔTm ([1]; 20 eq. compound, weak stabilization up to 8 eq.) [°C] | Ka [2] | ΔTm ([1]; 7.5 eq. compound) [°C] | Compound |
| --- | --- | --- | --- |
| 33 ± 2 | (1.4 ± 0.7) × 10^7 M^-1 | – | NCCCNCCCCNCCCNC(=O)c1ccc(-c2c3nc(c(-c4ccc(C(=O)NCCCNCCCCNCCCN)cc4)c4ccc([n-]4)c(-c4ccc(C(=O)NCCCNCCCCNCCCN)cc4)c4nc(c(-c5ccc(C(=O)NCCCNCCCCNCCCN)cc5)c5ccc2[n-]5)C=C4)C=C3)cc1.O.[Zn+2] |
| – | (4.7 ± 0.7) × 10^6 M^-1 | 36 ± 2 | NCCCNCCCCNCCCNC(=O)c1ccc(-c2c3nc(c(-c4ccc(C(=O)NCCCNCCCCNCCCN)cc4)c4ccc([nH]4)c(-c4ccc(C(=O)NCCCNCCCCNCCCN)cc4)c4nc(c(-c5ccc(C(=O)NCCCNCCCCNCCCN)cc5)c5ccc2[nH]5)C=C4)C=C3)cc1 |

Source: PMC6274827 (2018)
